Reference: ChEMBL document CHEMBL5257071, “Total Synthesis and Biological Evaluation of the Anti-Inflammatory (13R,14S,15R)-13-Hydroxy-14-deoxyoxacyclododecindione” (J Nat Prod, 2023)

biological target: Mothers against decapentaplegic homolog 2/homolog 3 (Homo sapiens, UniProt P84022+Q15796); experiment: Inhibition of TGF-beta induced Smad2/3 signaling in human HepG2 cells harboring pRL-EF1alpha, (CAGA)9x-MLP-Luc plasmid assessed as luciferase activity incubated for 24 hrs by Promega reporter rene assay; type: cell-based

IC50 | Structure (SMILES)
90 nM | C/C1=C\CC[C@H](C)[C@@H](C)OC(=O)Cc2c(Cl)c(O)cc(O)c2C1=O
30 nM | C/C1=C\CCC(C)(C)C(C)OC(=O)Cc2c(Cl)c(O)cc(O)c2C1=O (centres undefined)
236 nM | C/C1=C\C[C@@H](O)[C@H](C)[C@@H](C)OC(=O)Cc2c(Cl)c(O)cc(O)c2C1=O
137 nM | C/C1=C\CCC(C)(O)C(C)OC(=O)Cc2c(Cl)c(O)cc(O)c2C1=O (centres undefined)
